These results are taken from article PMC2978510 (Bioorganic & medicinal chemistry, 2010).

The conditions of experiment [1]: mouse; ref [28]; cited from earlier work.
The subject of experiment [2] is CB2 receptor. The following applies: cited from earlier work; for Ki: read-out: Affinity for the CB2 receptor, Merck Frosst group, ref [29].
Experiment [3] relates to CB1 receptor. The following applies: Merck Frosst group; ref [29]; cited from earlier work.
Experiment [4] concerns the target T1, CB2 receptor (Homo sapiens, UniProt P34972). The experiment is described as follows: GTPγS binding in CHO cells stably expressing the human CB2 receptor. The following applies: for Efficacy at the CB2 receptor: GTPγS binding, relative to CP-55,940. Format: biochemical. Background: GTPγS resists hydrolysis and so accumulates on activated G proteins.
Experiment [5] has as its target CB1 receptor (Rattus norvegicus, UniProt P20272). The conditions noted are these: read-out: Ki (nM) CB1; mean ± SEM; ref [31]; cited from earlier work.
Experiment [6] has as its target T1, CB2 receptor. The following applies: ref [31], cited from earlier work.

T1 sequence (P34972 whole entry): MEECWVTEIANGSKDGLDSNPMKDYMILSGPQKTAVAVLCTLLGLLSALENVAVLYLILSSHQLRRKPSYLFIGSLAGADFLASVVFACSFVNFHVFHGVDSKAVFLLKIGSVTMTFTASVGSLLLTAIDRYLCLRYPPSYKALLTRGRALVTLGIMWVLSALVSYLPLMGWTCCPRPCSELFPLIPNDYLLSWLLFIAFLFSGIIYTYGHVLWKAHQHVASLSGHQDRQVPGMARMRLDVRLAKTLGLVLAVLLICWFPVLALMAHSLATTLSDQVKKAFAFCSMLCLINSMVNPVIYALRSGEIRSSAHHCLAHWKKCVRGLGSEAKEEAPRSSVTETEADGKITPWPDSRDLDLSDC
CB1 receptor (Rattus norvegicus, UniProt P20272), sequence (P20272 whole entry): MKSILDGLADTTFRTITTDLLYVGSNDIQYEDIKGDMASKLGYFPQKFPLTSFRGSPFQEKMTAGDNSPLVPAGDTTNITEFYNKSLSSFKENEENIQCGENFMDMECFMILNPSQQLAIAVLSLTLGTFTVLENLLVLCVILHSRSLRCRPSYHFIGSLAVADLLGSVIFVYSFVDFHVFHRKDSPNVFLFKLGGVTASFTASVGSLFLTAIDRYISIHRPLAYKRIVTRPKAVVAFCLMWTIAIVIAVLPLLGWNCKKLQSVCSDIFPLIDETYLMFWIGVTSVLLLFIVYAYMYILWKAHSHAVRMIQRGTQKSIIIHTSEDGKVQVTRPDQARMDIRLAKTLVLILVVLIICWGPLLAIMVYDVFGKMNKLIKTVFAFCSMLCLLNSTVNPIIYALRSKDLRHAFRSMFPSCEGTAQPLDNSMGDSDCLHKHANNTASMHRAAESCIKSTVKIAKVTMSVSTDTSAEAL

`CCCCCCC(C)(C)c1ccc2c(c1)OC(C)(C)[C@@H]1CC=C(C)C[C@@H]21` [Compound 3, 3-(1′,1′-dimethylheptyl)-1-deoxy-Δ^8-THC]: the Potency in vivo entry in experiment [1] is recorded as “potent in vivo”. For the same molecule, the “Selectivity for the CB2 receptor” value in experiment [2] (ref [28]) is reported as “nearly ten-fold selectivity”. Turning to `C=C1CCC2C(C1)c1c(OC)cc(C(C)(C)CCCCCC)cc1OC2(C)C` (stereo not shown) [Compound 5, 1-methoxy-Δ^9(11)-THC-DMH], the “Affinity for the CB1 receptor” value in experiment [3] is “negligible affinity”. Further, in experiment [2], the Ki is roughly 20 nM. For orientation: Emax means the greatest response seen or fitted, relative to the assay's reference. For the molecule `CCCCCC(C)(C)c1cc(Br)c2c(c1)OC(C)(C)[C@@H]1CC=C(C)C[C@@H]21` [JWH-393, 1-Bromo-1-deoxy-3-(1′,1′-dimethylhexyl)-Δ^8-tetrahydrocannabinol], the “Efficacy at the CB2 receptor” value in experiment [4] is recorded as “full agonists”. For the same molecule, the Emax in experiment [4] (read-out: Emax (% CP-55940), percent relative to 3 μM CP-55,940, mean ± SEM) was 98.3 ± 6.8%. As for `CCCCCCC(C)(C)c1cc(Br)c2c(c1)OC(C)(C)[C@@H]1CC=C(C)C[C@@H]21` [JWH-383, 1-Bromo-1-deoxy-3-(1′,1′-dimethylheptyl)-Δ^8-tetrahydrocannabinol], the “Efficacy at the CB2 receptor” value in experiment [4] was “full agonists”. On to `CCCC(C)(C)c1cc(OC)c2c(c1)OC(C)(C)[C@@H]1CC=C(C)C[C@@H]21` [JWH-214], for which the Ki in experiment [5] was greater than 10000 nM; in experiment [6] (read-out: Ki (nM) CB2, mean ± SEM), 325 ± 70 nM.

`CCCCCCC(C)(C)c1ccc2c(c1)OC(C)(C)[C@@H]1CC=C(CO)C[C@@H]21` [Compound 2, 11-hydroxy-3-(1′,1′-dimethylheptyl)-1-deoxy-Δ^8-THC]: the Potency in vivo entry in experiment [1] is “potent cannabinoid in vivo in the mouse”. As to `CCCCCCC(C)(C)c1cc(OC)c2c(c1)OC(C)(C)C1CC=C(C)CC21` (stereo not shown) [JWH-143], the “Selectivity for the CB2 receptor” value in experiment [6] (1-methoxy series) is given as 12 fold. On to `CCCCCCC(C)(C)c1cc(OC)c2c(c1)OC(C)(C)C1CC=C(C)CC21` (stereo not shown) [Compound 4, 1-methoxy-Δ^8-THC-DMH], for which the “Affinity for the CB1 receptor” value in experiment [3] was “negligible affinity”. Further, the Ki in experiment [2] is roughly 20 nM.
